# Assay results from PubChem BioAssay AID1259407 (Chemical Carcinogenesis Research Information System (CCRIS), 2018).
# Calls of active or inactive are those of the source. How the calls were made is not given here.
# Tested on: CCRIS mutagenicity, Ames/micronucleus/aberration tests
# Assay: CCRIS mutagenicity studies
# [1] = Test System: AMES SALMONELLA TYPHIMURIUM, Strain/Indicator: TA98, Metabolic Activation: NONE, Method: STANDARD PLATE
# [2] = Test System: AMES SALMONELLA TYPHIMURIUM, Strain/Indicator: TA100, Metabolic Activation: NONE, Method: STANDARD PLATE
# [3] = Test System: AMES SALMONELLA TYPHIMURIUM, Strain/Indicator: TA1535, Metabolic Activation: NONE, Method: STANDARD PLATE
# [4] = Test System: AMES SALMONELLA TYPHIMURIUM, Strain/Indicator: TA1537, Metabolic Activation: NONE, Method: STANDARD PLATE
smiles,measurement,setting,value
Nc1ccc2c(c1)oc1ccccc12,mutagenic call,[1],active; positive
same,mutagenic call,"Test System: AMES SALMONELLA TYPHIMURIUM, Strain/Indicator: TA98, Metabolic Activation: S-9, PHENOBARBITAL AND 5,6-BENZOFLAVONE, Method: STANDARD PLATE",active; positive
same,mutagenic call,[2],inactive; negative
same,mutagenic call,"Test System: AMES SALMONELLA TYPHIMURIUM, Strain/Indicator: TA100, Metabolic Activation: S-9, PHENOBARBITAL AND 5,6-BENZOFLAVONE, Method: STANDARD PLATE",active; positive
CC1(C)CC(C(=O)NC(CO)C(O)CO)C(C)(C)N1O (centres undefined),mutagenic call,"Test System: CHO, Strain/Indicator: CHO/6-THIOGUANINE, Metabolic Activation: NONE, Method: STANDARD PLATE",inactive; negative
same,mutagenic call,"Test System: CHO, Strain/Indicator: CHO/6-THIOGUANINE, Metabolic Activation: RAT, LIVER, S-9, AROCLOR 1254, Method: STANDARD PLATE",inactive; negative
same,mutagenic call,"Test System: CHO, Strain/Indicator: CHO/OUABAIN, Metabolic Activation: NONE, Method: STANDARD PLATE",inactive; negative
same,mutagenic call,"Test System: CHO, Strain/Indicator: CHO/OUABAIN, Metabolic Activation: RAT, LIVER, S-9, AROCLOR 1254, Method: STANDARD PLATE",inactive; negative
COc1cc(/C=C/C(=O)O[C@H]2CC[C@]34C[C@]35CC[C@]3(C)[C@@H]([C@H](C)CCC=C(C)C)CC[C@@]3(C)[C@@H]5CC[C@H]4C2(C)C)ccc1O,mutagenic call,[1],inactive; negative
same,mutagenic call,"Test System: AMES SALMONELLA TYPHIMURIUM, Strain/Indicator: TA98, Metabolic Activation: S9, Method: STANDARD PLATE",inactive; negative
same,mutagenic call,[2],inactive; negative
same,mutagenic call,"Test System: AMES SALMONELLA TYPHIMURIUM, Strain/Indicator: TA100, Metabolic Activation: S9, Method: STANDARD PLATE",inactive; negative
same,mutagenic call,[3],inactive; negative
same,mutagenic call,"Test System: AMES SALMONELLA TYPHIMURIUM, Strain/Indicator: TA1535, Metabolic Activation: S9, Method: STANDARD PLATE",inactive; negative
same,mutagenic call,[4],inactive; negative
same,mutagenic call,"Test System: AMES SALMONELLA TYPHIMURIUM, Strain/Indicator: TA1537, Metabolic Activation: S9, Method: STANDARD PLATE",inactive; negative
same,mutagenic call,"Test System: E.COLI, Strain/Indicator: WP2 UVRA, Metabolic Activation: NONE, Method: STANDARD PLATE",inactive; negative
same,mutagenic call,"Test System: E.COLI, Strain/Indicator: WP2 UVRA, Metabolic Activation: S9, Method: STANDARD PLATE",inactive; negative
CCO,mutagenic call,"Test System: AMES SALMONELLA TYPHIMURIUM, Strain/Indicator: TA97, Metabolic Activation: HAMSTER, LIVER, S-9, AROCLOR 1254 (10%), Method: PREINCUBATION",inactive; negative
same,mutagenic call,"Test System: AMES SALMONELLA TYPHIMURIUM, Strain/Indicator: TA97, Metabolic Activation: HAMSTER, LIVER, S-9, AROCLOR 1254 (30%), Method: PREINCUBATION",inactive; negative
same,mutagenic call,"Test System: AMES SALMONELLA TYPHIMURIUM, Strain/Indicator: TA97, Metabolic Activation: NONE, Method: PREINCUBATION",inactive; negative
same,mutagenic call,"Test System: AMES SALMONELLA TYPHIMURIUM, Strain/Indicator: TA97, Metabolic Activation: RAT, LIVER, S-9, AROCLOR 1254 (10%), Method: PREINCUBATION",inactive; negative
same,mutagenic call,"Test System: AMES SALMONELLA TYPHIMURIUM, Strain/Indicator: TA97, Metabolic Activation: RAT, LIVER, S-9, AROCLOR 1254 (30%), Method: PREINCUBATION",inactive; negative
same,mutagenic call,"Test System: AMES SALMONELLA TYPHIMURIUM, Strain/Indicator: TA98, Metabolic Activation: HAMSTER, LIVER, S-9, AROCLOR 1254 (10 OR 30%), Method: PREINCUBATION",inactive; negative
same,mutagenic call,"Test System: AMES SALMONELLA TYPHIMURIUM, Strain/Indicator: TA98, Metabolic Activation: NONE, Method: PREINCUBATION",inactive; negative
same,mutagenic call,"Test System: AMES SALMONELLA TYPHIMURIUM, Strain/Indicator: TA98, Metabolic Activation: RAT, LIVER, S-9, AROCLOR 1254 (10 OR 30%), Method: PREINCUBATION",inactive; negative
same,mutagenic call,"Test System: AMES SALMONELLA TYPHIMURIUM, Strain/Indicator: TA100, Metabolic Activation: HAMSTER, LIVER, S-9, AROCLOR 1254 (10 OR 30%), Method: PREINCUBATION",inactive; negative
same,mutagenic call,"Test System: AMES SALMONELLA TYPHIMURIUM, Strain/Indicator: TA100, Metabolic Activation: NONE, Method: PREINCUBATION",inactive; negative
same,mutagenic call,"Test System: AMES SALMONELLA TYPHIMURIUM, Strain/Indicator: TA100, Metabolic Activation: RAT, LIVER, S-9, AROCLOR 1254 (10 OR 30%), Method: PREINCUBATION",inactive; negative
same,mutagenic call,"Test System: AMES SALMONELLA TYPHIMURIUM, Strain/Indicator: TA104, Metabolic Activation: HAMSTER, LIVER, S-9, AROCLOR 1254 (10 OR 30%), Method: PREINCUBATION",inactive; negative
same,mutagenic call,"Test System: AMES SALMONELLA TYPHIMURIUM, Strain/Indicator: TA104, Metabolic Activation: NONE, Method: PREINCUBATION",inactive; negative
same,mutagenic call,"Test System: AMES SALMONELLA TYPHIMURIUM, Strain/Indicator: TA104, Metabolic Activation: RAT, LIVER, S-9, AROCLOR 1254 (10 OR 30%), Method: PREINCUBATION",inactive; negative
same,mutagenic call,"Test System: AMES SALMONELLA TYPHIMURIUM, Strain/Indicator: TA1535, Metabolic Activation: HAMSTER, LIVER, S-9, AROCLOR 1254 (10 OR 30%), Method: PREINCUBATION",inactive; negative
same,mutagenic call,"Test System: AMES SALMONELLA TYPHIMURIUM, Strain/Indicator: TA1535, Metabolic Activation: NONE, Method: PREINCUBATION",inactive; negative
same,mutagenic call,"Test System: AMES SALMONELLA TYPHIMURIUM, Strain/Indicator: TA1535, Metabolic Activation: RAT, LIVER, S-9, AROCLOR 1254 (10 OR 30%), Method: PREINCUBATION",inactive; negative
same,mutagenic call,"Test System: MOUSE LYMPHOMA, Strain/Indicator: L5178Y (TK+/TK-), Metabolic Activation: NONE, Method: SUSPENSION/PLATE",inactive; negative
same,mutagenic call,"Test System: MOUSE LYMPHOMA, Strain/Indicator: L5178Y (TK+/TK-), Metabolic Activation: RAT, LIVER, S-9, AROCLOR 1254, Method: SUSPENSION/PLATE",inactive; negative
Cc1cccc(N)c1N,mutagenic call,"Test System: AMES SALMONELLA TYPHIMURIUM, Strain/Indicator: TA98, Metabolic Activation: RAT, LIVER, MICROSOMES, AROCLOR 1254, Method: PREINCUBATION",active; positive
same,mutagenic call,"Test System: AMES SALMONELLA TYPHIMURIUM, Strain/Indicator: TA98, Metabolic Activation: RAT, LIVER, MICROSOMES, DIAMINOTOLUENE, Method: PREINCUBATION",active; positive
same,mutagenic call,"Test System: AMES SALMONELLA TYPHIMURIUM, Strain/Indicator: TA98, Metabolic Activation: RAT, LIVER, MICROSOMES, Method: PREINCUBATION",active; positive
O=C(Nc1ccc(Br)cc1)c1csc([N+](=O)[O-])c1,mutagenic call,[1],active; positive
same,mutagenic call,[2],active; positive
CSc1ccc(Cl)cc1,mutagenic call,[1],inactive; negative
same,mutagenic call,"Test System: AMES SALMONELLA TYPHIMURIUM, Strain/Indicator: TA98, Metabolic Activation: RAT, LIVER, S-9, AROCLOR 1254, Method: STANDARD PLATE",inactive; negative
same,mutagenic call,[2],inactive; negative
same,mutagenic call,"Test System: AMES SALMONELLA TYPHIMURIUM, Strain/Indicator: TA100, Metabolic Activation: RAT, LIVER, S-9, AROCLOR 1254, Method: STANDARD PLATE",inactive; negative
same,mutagenic call,[3],inactive; negative
same,mutagenic call,"Test System: AMES SALMONELLA TYPHIMURIUM, Strain/Indicator: TA1535, Metabolic Activation: RAT, LIVER, S-9, AROCLOR 1254, Method: STANDARD PLATE",inactive; negative
same,mutagenic call,[4],inactive; negative
same,mutagenic call,"Test System: AMES SALMONELLA TYPHIMURIUM, Strain/Indicator: TA1537, Metabolic Activation: RAT, LIVER, S-9, AROCLOR 1254, Method: STANDARD PLATE",inactive; negative
same,mutagenic call,"Test System: AMES SALMONELLA TYPHIMURIUM, Strain/Indicator: TA1538, Metabolic Activation: NONE, Method: STANDARD PLATE",inactive; negative
same,mutagenic call,"Test System: AMES SALMONELLA TYPHIMURIUM, Strain/Indicator: TA1538, Metabolic Activation: RAT, LIVER, S-9, AROCLOR 1254, Method: STANDARD PLATE",inactive; negative
Nc1cc([N+](=O)[O-])cc([N+](=O)[O-])c1C(=O)O,mutagenic call,"End Point: In vitro chromosomal aberrations, Test System: V79 Chinese hamster fibroblasts, Metabolic Activation: None",inactive; negative
same,mutagenic call,"End Point: In vitro micronucleus, Test System: HepG2 human hepatoma cells, Metabolic Activation: None",active; positive
same,mutagenic call,"Test System: Ames Salmonella typhimurium, Strain/Indicator: TA98, Metabolic Activation: None, Method: Standard plate",active; positive
same,mutagenic call,"Test System: Ames Salmonella typhimurium, Strain/Indicator: TA98, Metabolic Activation: Rat, Liver, S-9, Method: Standard plate",active; positive
same,mutagenic call,"Test System: Ames Salmonella typhimurium, Strain/Indicator: TA98NR, Metabolic Activation: None, Method: Standard plate",active; positive
same,mutagenic call,"Test System: Ames Salmonella typhimurium, Strain/Indicator: TA100, Metabolic Activation: None, Method: Standard plate",inactive; negative
same,mutagenic call,"Test System: Ames Salmonella typhimurium, Strain/Indicator: TA100, Metabolic Activation: Rat, Liver, S-9, Method: Standard plate",inactive; negative
